Measurements from the supplement of paper PMC8671470.

How the values were obtained:
Settings in all cases: 72 h
[1] = system: BV-173
How it was run: (§1)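 Each of fifteen myeloid leukaemia cell lines was seeded in RPMI 1640 at a density titrated to its linear growth range. The cells were incubated for 72 h at 37 °C and 5% CO2 with compounds at five tenfold doses from 1 to 10,000 nM, in duplicate. After ATP luminescence was normalised to vehicle and to a positive control at 10 µM, four-parameter log-logistic curves were fitted. These curves gave the IC50.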

[2] = system: HEL
How it was run: as §1

[3] = system: HL-60
How it was run: as §1

[4] = system: K-562
How it was run: as §1

[5] = system: KCL-22
How it was run: as §1

[6] = system: KG-1
How it was run: as §1

[7] = system: KU-812
How it was run: as §1

[8] = system: LAMA-84
How it was run: as §1

[9] = system: ML-2
How it was run: as §1

[10] = system: MOLM-13
How it was run: as §1

[11] = system: MV4-11
How it was run: as §1

[12] = system: Mono-Mac-6
How it was run: as §1

[13] = system: NOMO-1
How it was run: as §1

[14] = system: SHI-1
How it was run: as §1

[15] = system: THP-1
How it was run: as §1

[16] = system: HL-60; assay: cell viability (% survival relative to DMSO control); higher = less cytotoxic
How it was run: (§2)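 A rescreen of the full library used HL-60 cells in RPMI 1640 with 10% FBS on 384-well plates, run in duplicate at five tenfold concentrations (1–10,000 nM). Each screen included DMSO or 100 nM of one of three metabolic inhibitors and ran 72 h at 37 °C, 5% CO2. CellTiter-Glo viability was scaled between DMSO and 10 μM proteasome-inhibitor wells. Any area under the curve comes from four-parameter log-logistic fits with drc and PharmacoGx.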

[17] = system: BV-173; assay: cell viability (% survival relative to DMSO control, bortezomib = 0%); higher = less cytotoxic
How it was run: (§3)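 Fifteen myeloid leukaemia cell lines were exposed to compounds at 1, 10, 100, 1000 or 10000 nM in 384-well plates for 72 h at 37 °C and 5% CO2. Viability was read by CellTiter-Glo luminescence and normalised, with vehicle as 100% and a 10 µM positive control as 0%. Values are percent survival averaged over duplicates.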

[18] = system: HEL; assay: as above
How it was run: as §3

[19] = system: HL-60; assay: as above
How it was run: as §3

[20] = system: K-562; assay: as above
How it was run: as §3

[21] = system: KCL-22; assay: as above
How it was run: as §3

[22] = system: KU-812; assay: as above
How it was run: as §3

[23] = system: LAMA-84; assay: as above
How it was run: as §3

[24] = system: ML-2; assay: as above
How it was run: as §3

[25] = system: Mono-Mac-6; assay: as above
How it was run: as §3

[26] = system: NOMO-1; assay: as above
How it was run: as §3

[27] = system: SHI-1; assay: as above
How it was run: as §3

[28] = system: HL-60; assay: area under dose-response curve (viability, 1 nM-10 uM) (fraction (0-1)); higher = more sensitive
How it was run: as §2

O=C(O)C1=CC(=C(c2ccc(O)c(C(=O)O)c2)c2ccc(O)c(C(=O)O)c2)C=CC1=O [Aurintricarboxylic acid]
Settings	IC50 (cell viability) [µM]
[1]	2.72
[2]	3.3
[3]	> 10
[4]	> 10
[5]	> 10
[6]	> 10
[7]	> 10
[8]	> 10
[9]	> 10
[10]	2.64
[11]	> 10
[12]	> 10
[13]	> 10
[14]	> 10
[15]	> 10

cell viability [%], [16]
Settings	0.001 µM	0.01 µM	0.1 µM	1 µM	10 µM
co-treatment: AZD3965 100 nM	95.9	101	101	94.5	98.9
co-treatment: DMSO vehicle	101	81.6	106	104	97.6
co-treatment: GSK2194069 100 nM	94.1	82.3	98.7	98.3	82.5
co-treatment: pictilisib 100 nM	99.3	99.3	96.2	101	103

Settings	area under dose-response curve, co-treatment: AZD3965 100 nM	area under dose-response curve, co-treatment: DMSO vehicle	area under dose-response curve, co-treatment: GSK2194069 100 nM	area under dose-response curve, co-treatment: pictilisib 100 nM	cell viability, 1 nM [%]	cell viability, 10 nM [%]	cell viability, 100 nM [%]	cell viability, 1000 nM [%]	cell viability, 10000 nM [%]
[17]	–	–	–	–	114	104	107	88.3	9.49
[18]	–	–	–	–	108	85.9	115	92.5	21.8
[19]	–	–	–	–	103	87.8	103	91.1	111
[20]	–	–	–	–	88.9	104	82	101	128
[21]	–	–	–	–	131	94.8	92	116	119
[22]	–	–	–	–	98	102	106	96	102
[23]	–	–	–	–	105	102	100	89	106
[24]	–	–	–	–	107	97.7	97.5	96.4	92.9
[25]	–	–	–	–	98.6	98.6	104	105	89.7
[26]	–	–	–	–	95.8	108	109	90.1	80.9
[27]	–	–	–	–	104	91.8	99	100	114
[28]	< 0.0301	< 0.0301	< 0.0301	< 0.0301	–	–	–	–	–
